Measurements from patent publication US10556860B2, “hTERT modulators and methods of use” (Arizona Board of Regents on Behalf of the University of …, priority 2015, dated 2020).

Assays:
[1] = test system: BAX/BCL2 mRNA ratio; assay: BAX/BCL2 ratio in MCF7 cells; type: cell-based, human; details: 0.5-1 μM, 72 h, relative to DMSO
Experimental: FIG. 11 is a graph showingincrease of BAX/BCL2 ratios by GTC365 in mRNA levels. MCF7 cells were treated with GTC365 for 72 h and then subjected to qPCR and immunoblot analysis. The relative ratio of BAX/BCL2 was determined compared with a DMSO-treated sample.
Indeed at 0.5-1 μM, the BAX/BCL2 ratio was increased by over 2-fold and the capase-3 activity was increased by 47% (FIGS. 11 and 12).

[2] = test system: hTERT under the control of the CMV promoter; assay: hTERT transcription in MCF7 cells overexpressing hTERT under CMV promoter; type: cell-based, human; details: MCF7 cell line transfected with plasmid overexpressing hTERT (CMV promoter)
Experimental: qPCR. MCF7 and melanoma cells were treated with GTC365 and BRACO-19 for 72 h. Total RNA was extracted using an RNeasy mini-prep kit (Qiagen) and quantitated by measuring absorbance at 260 nm. cDNA was synthesized using a Takara PrimeScript™ RT Reagent Kit with gDNA eraser and then used as a template for qPCR. The qPCR was performed using Kapa Probe Fast qPCR Master Mix with ABI Taqman probes of hTERT (Hs00972656_m1), BCL2 (HS00608023_m1, FAM-labeled) or MYC (Hs00153408_m1), and GAPDH (Hs02758991_g1, VIC-labeled). The Ct values were measured by running Rotor-Gene Q, and the relative quantity of hTERT, BCL2, and MYC mRNA was obtained compared to GAPDH as an internal control.
Establishment of stable cell lines overexpressing hTERT. The pCDNA-3XHA-hTERT plasmid containing hTERT driven by theCMV promoter was obtained from Addgene (ID: 51637) deposited by Dr. Steven Artandi. MCF7 cells in a 24-well plate were transfected with this plasmid (250 ng) using FuGENE HD transfection reagent for24 h. Cells were treated with several concentrations of G418 (0.1-1 mg/mL) and an antibiotic for colony selection for 4 weeks, and thenone colony was selected for further culture. […]

[3] = test system: MCF7 cells; assay: Senescence β-galactosidase assay; type: cell-based, human; details: 0.5 μM, 5-10 days
Experimental: Senescence β-galactosidase assay. A colorimetric β-galactosidase assay was performed. Briefly, compound-treated MCF7 cells were fixed in 2% formaldehyde and 0.2% glutaraldehyde for 5 min at room temperature. Fixed cells were incubated with staining solution containing 40 mM citric acid (pH 6.0), 5 mM potassium ferrocyanide, 5 mM potassium ferricyanide, 150 mM NaCl, and 2 mM MgCl2 and 1 mg/ml X-gal (Fermentas R0401) for 7 h at 37° C. Stained cells were washed with D-PBS and methanol and subsequently dried in air.
Since senescence is one of the outcomes resulting from loss of telomere length, this was measured by the associated overexpression of lysosomal β-galactosidase, which releases indigo (blue dye) from X-gal. In addition, the cell morphology will also be dramatically changed so that cells appear to be flat and enlarged. […] Abnormal phenotypes such as bridges connecting two adjacent cells and multinucleated cells were also observed in GTC365-treated cells. hTERT is known to localize to mitotic spindles and centromeres and regulate the expression of genes involved in heterochromatin maintenance. In addition, there is alteration of expression of some proteins involved in collagen synthesis or tubulin organization by hTERT transfection.

[4] = test system: G124/125A mutant hTERT G-quadruplex; assay: CD melting (Tm), G124/125A mutant; type: binding, human; details: 2 equiv
Experimental: Circular dichroism. Oligomers of WT, G124A, G124/125A, G138/139A and G146A were synthesized and HPSF-purified by MGW Operon, Inc. For CD analysis, oligomers (5 μM) in a buffer containing 10 mM Tris-HCl (pH 7.5) and 140 mM KCl were annealed. For the CD analysis of the complex of oligomers and compounds, oligomers (5 μM) in a buffer containing 10 mM Tris-HCl (pH 7.5) and 5 mM KCl for GTC365 or 1 mM KCl for BRACO-19 were annealed. Oligomers and GTC365 or BRACO-19 were incubated overnight at room temperature. For the full-length of C-rich strand, the oligomer in a buffer of 10 mM Na cacodylate (pH 6.6) was annealed and then incubated with GTC365 overnight. CD analysis was conducted on a Jasco 810 spectropolarimeter (Jasco, Easton, Md.) using a quartz cell with 1 mm of path length, 1 nm of band width, and 1 s of response time for spectra at 20° C. Melting curves for the determination of Tm were obtained by recording ellipticity at 262 nm with increasing temperatures from 25° C. to 95° C. at a rate of 1.6° C./min. Tm of the C-rich strand with GTC365 was obtained from the CD signal at 286 nm within 10-60° C.
CD and DMS footprinting analyses were conducted to characterize the binding of GTC365 and BRACO-19 to the 5-12 G-quadruplex. […] To verify the effects of compounds on the thermal stability of the WT and the mutant G-quadruplexes, Tms were determined by CD. […]

**Q.** How did the “increase of BAX/BCL2 ratio” value [1] turn out when `N=C(N)NCCCS(=O)(=O)Nc1ccc(Nc2c3ccccc3nc3cc([N+](=O)[O-])ccc23)cc1` [GTC365] was run?
**A.** over 2 fold

**Q.** What about the “effect on hTERT transcription” value [2] of the same compound?
**A.** no effect

**Q.** What about the “senescence-like phenotype (β-galactosidase staining, morphology)” value [3] of the same compound?
**A.** distinct senescence-like phenotype (SLP)

**Q.** And the “Tm more increased compared to the WT” value [4]?
**A.** 6-7 °C
